Data set [1] addresses T1, human metabotropic glutamate receptor 2 (mGluR2) (Homo sapiens, UniProt Q14416).
T1 construct: expressed in transfected cells; host or cells: CHO-K1
Description: Binding Assay (mGluR2 GTPγ35S assay). It is filed as biochemical. Particulars: membranes from CHO-K1 cells expressing human mGluR2; L-glutamate and GTPγ35S stimulation, 45 minutes, SPA. The procedure:
This assay was developed to measure the agonist and/or positive allosteric modulator (PAM) activity of compounds at the human metabotropic glutamate receptor 2 (mGluR2).
Crude membranes were prepared from CHO-K1 cells expressing human mGluR2 and stored at −80° C. in aliquots in 2 mg/mL concentrations using a previously described method Fenge et al., Cytotechnology 38 (2002). Assay buffer is defined as 0.22 μM filtered water containing 50 mM HEPES (Teknova), 10 mM MgCl2 (Teknova), 50 mM NaCl (Teknova), 100 μM DTT (Sigma 43819), pH 7.4. Membrane solution containing membranes, beads, and GDP diluted in assay buffer was prepared in excess and incubated for 15 to 30 minutes at room temperature (25° C.). Membrane solution was prepared in a per-well ratio of 1.8 μg membranes, 225 μg PVT-WGA SPA beads (Perkin Elmer RPNQ0001), 3.3 μM GDP (Sigma G7127) in assay buffer to a final per-well volume of 180 μl. Stimulation buffer was prepared by diluting L-glutamate to 10 μM and GTPγ^35S to 1 nM in assay buffer. […] 20 μL of stimulation buffer was then added to individual wells, plates were sealed, incubated on a shaker at room temperature for 45 minutes, centrifuged at 1000 RPM for 5 minutes and then assessed using a ^35S SPA Program (1 minute read time. Low Background Paralux) on a MicroBeta instrument (PerkinElmer, Waltham, Massachusetts).

Data set [2] in a line: Pharmacokinetics after intravenous bolus in rats. It is filed as in vivo. The settings on record: male Wistar rat, nominal dose 1.0 mg/kg, plasma. The procedure: The animals were single dosed via intravenous (IV) bolus to tail vein over approximately 5 seconds. The animals were not fasted prior to dosing. The single dose formulation samples were collected from middle of formulation and stored at 5±3° C. for potential analysis. Animals were evaluated during in-life phase.
The blood samples were centrifuged at 2000 g for 5 minutes at 4° C. to obtain plasma. Plasma samples were stored in polypropylene tubes, quickly frozen in ice box and kept at −80° C. Plasma samples were deprotainated by solvent precipitation. Concentration of Compounds A and D in plasma and tissue samples were analyzed using a LC-MS/MS method. WinNonlin version 6.2 will be used for pharmacokinetic parameters calculations. AUC was calculated using log trapezoidal method.

The nature of data set [3]: Compound turnover and metabolite formation in human hepatocytes with or without CYP3A inhibitor ketoconazole. The format is in vitro ADME. The procedure: Approximately 10% of Compound A disappeared in 60 minutes.
Since Compound D was predominantly metabolized by CYP3A4, further experiments were conducted with Compound A in human hepatocytes in the presence and absence of CYP3A inhibitor ketoconazole. […] Parent disappearance data indicated a CYP3A involvement in the metabolism of Compound A (FIG. 1); however, the very low intrinsic clearance values make it difficult to provide an accurate determination of a percentage involvement of CYP3A via a substrate depletion method as described above.
Within the same experiments, the formation of Compound A metabolites in the absence of ketoconazole was observed (FIG. 2).

Data set [4] has as its system recombinant CYP enzymes (CYP1A2, 2A6, 2B6, 2C8, 2C9, 2C19, 2D6, 2E1, 3A4 and 3A5). Kind of data set: Turnover in recombinant CYP enzymes. The format is in vitro ADME. The settings on record: 0.1 μM and 1 μM. The procedure:
To identify the enzymes responsible for P450 mediated metabolism, the turnover of Compound A was tested in recombinant CYP enzymes (CYP1A2, 2A6, 2B6, 2C8, 2C9, 2C19, 2D6, 2E1, 3A4 and 3A5) at 0.1 μM and 1 μM.

Data set [5] is described as follows: Metabolite identification and relative abundance in human hepatocytes. The format is in vitro ADME. The settings on record: Compound A 10 μM in human hepatocytes (1 million cells/mL), 4 hours, 37° C. The procedure:
Compound A was incubated at 10 μM in human hepatocytes (1 million cells/mL) for 4 hours at 37° C. under air with 5% CO2. The reaction was stopped by adding acetonitrile at a ratio of 3:1. Following centrifugation the supernatant was transferred to a clean tube and dried under a stream of N2. Following reconstitution in 30% acetonitrile, aliquots of the sample were injected onto a LC/UV/MS system for metabolite identification and profiling. This allowed assessment of the metabolites formed and an indication of their relative abundance (via UV, Table 6).

For data set [6] the following is noted: as disclosed in WO 2009/148403; cited from earlier work.
The target in data set [7] is hERG ion channel (Homo sapiens, UniProt Q12809). The settings on record: as disclosed in WO 2009/148403; cited from earlier work.
Data set [8] addresses mGluR2 (Homo sapiens, UniProt Q14416). The settings on record: as disclosed in WO 2009/148403; cited from earlier work.

This is an account of results in US20170145002A1, “DEUTERATED ISOXAZOLE DERIVATIVES AND THEIR USE AS METABOTROPIC GLUTAMATE RECEPTOR POTENTIATORS” (AstraZeneca AB, priority 2015, published 2017).

T1 sequence (Q14416 19-872): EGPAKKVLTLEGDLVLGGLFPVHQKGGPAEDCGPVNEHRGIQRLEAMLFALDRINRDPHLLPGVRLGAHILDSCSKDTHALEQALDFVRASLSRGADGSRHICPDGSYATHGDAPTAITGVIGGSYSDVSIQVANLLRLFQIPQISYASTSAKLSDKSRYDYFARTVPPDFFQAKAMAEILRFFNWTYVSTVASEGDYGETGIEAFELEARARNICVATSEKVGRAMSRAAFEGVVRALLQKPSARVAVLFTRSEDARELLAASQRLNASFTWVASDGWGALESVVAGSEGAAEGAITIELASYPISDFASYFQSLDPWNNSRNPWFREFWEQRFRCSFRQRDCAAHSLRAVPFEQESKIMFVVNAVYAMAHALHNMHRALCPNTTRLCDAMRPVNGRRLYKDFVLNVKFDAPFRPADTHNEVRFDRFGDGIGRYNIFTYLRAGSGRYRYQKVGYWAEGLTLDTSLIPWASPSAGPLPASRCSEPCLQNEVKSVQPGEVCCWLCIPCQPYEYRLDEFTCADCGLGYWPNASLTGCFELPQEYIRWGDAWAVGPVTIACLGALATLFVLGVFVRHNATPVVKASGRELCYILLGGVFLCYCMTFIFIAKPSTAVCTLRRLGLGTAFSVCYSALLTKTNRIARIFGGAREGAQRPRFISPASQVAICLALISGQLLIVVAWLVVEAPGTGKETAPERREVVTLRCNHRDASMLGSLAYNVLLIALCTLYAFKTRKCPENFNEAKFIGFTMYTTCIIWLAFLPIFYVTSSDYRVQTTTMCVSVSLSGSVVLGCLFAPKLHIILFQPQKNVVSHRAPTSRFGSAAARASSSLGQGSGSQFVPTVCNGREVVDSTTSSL
hERG ion channel, sequence (Q12809 whole entry): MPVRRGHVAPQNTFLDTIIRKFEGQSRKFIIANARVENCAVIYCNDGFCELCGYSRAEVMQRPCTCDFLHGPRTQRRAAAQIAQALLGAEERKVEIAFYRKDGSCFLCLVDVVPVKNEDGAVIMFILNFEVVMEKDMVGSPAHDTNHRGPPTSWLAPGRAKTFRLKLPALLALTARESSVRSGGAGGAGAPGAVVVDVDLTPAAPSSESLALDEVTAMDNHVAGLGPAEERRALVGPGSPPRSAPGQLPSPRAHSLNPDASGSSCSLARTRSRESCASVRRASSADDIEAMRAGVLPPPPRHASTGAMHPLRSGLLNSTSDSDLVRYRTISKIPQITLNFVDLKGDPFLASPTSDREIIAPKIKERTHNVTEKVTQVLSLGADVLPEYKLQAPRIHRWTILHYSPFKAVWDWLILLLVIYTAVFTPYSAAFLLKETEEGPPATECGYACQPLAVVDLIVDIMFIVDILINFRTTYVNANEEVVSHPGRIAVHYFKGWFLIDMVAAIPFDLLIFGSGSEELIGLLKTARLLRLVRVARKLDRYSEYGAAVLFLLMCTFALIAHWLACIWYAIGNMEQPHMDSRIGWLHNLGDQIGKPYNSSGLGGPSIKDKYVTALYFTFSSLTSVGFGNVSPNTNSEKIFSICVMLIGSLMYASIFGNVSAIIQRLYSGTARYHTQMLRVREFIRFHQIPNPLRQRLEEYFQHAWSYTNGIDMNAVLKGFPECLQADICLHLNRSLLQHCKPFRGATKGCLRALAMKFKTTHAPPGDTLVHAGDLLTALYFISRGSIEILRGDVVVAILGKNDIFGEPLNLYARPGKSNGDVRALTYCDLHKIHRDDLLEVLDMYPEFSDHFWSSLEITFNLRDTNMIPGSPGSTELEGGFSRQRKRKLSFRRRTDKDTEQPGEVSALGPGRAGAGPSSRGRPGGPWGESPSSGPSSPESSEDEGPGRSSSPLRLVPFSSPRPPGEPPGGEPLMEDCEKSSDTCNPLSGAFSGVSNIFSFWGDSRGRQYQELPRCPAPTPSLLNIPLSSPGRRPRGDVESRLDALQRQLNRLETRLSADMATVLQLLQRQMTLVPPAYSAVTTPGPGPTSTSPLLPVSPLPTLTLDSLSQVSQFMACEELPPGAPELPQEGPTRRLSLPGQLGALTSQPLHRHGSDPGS
mGluR2, sequence (Q14416 19-872): as the sequence (Q14416 19-872) above

With `[2H]C1([2H])OC([2H])([2H])C([2H])([2H])N(C(=O)c2cc(-c3cc(Cl)c4c(c3)CN([C@@H](C)C3CC3)C4=O)on2)C1([2H])[2H]` [Compound A, (S)-7-chloro-2-(1-cyclopropylethyl)-5-(3-(morpholine-4-carbonyl-2,2,3,3,5,5,6,6-d8)isoxazol-5-yl)isoindolin-1-one], the 50% effective concentration (EC50) in data set [1] stood at 170 ± 9 nM. Also, in data set [2], the area under the curve (AUC) amounted to 1.29 µM·h, the clearance turned out to be 31.1 mL/min/kg and the half-life was 45.7 min. For the same molecule, in data set [3], the “Turnover in human hepatocytes” value is “very low turnover”. Moreover, the Parent compound disappeared entry in data set [3] (60 minutes, absence of ketoconazole) is listed as “Approximately 10%”. For the same molecule, in data set [3] (with ketoconazole), the “Turnover in presence of CYP3A inhibitor” value was “No turnover was observed”. In addition, in data set [4], the “Turnover in recombinant CYP enzymes” value is on record as “No significant turnover was observed”. For the same molecule, the “Relative UV abundance (%) Human” value in data set [5] was 94.2%.

In data set [1], `C[C@@H](C1CC1)N1Cc2cc(-c3cc(C(=O)N4CCOCC4)no3)cc(Cl)c2C1=O` [Compound D, (S)-7-chloro-2-(1-cyclopropylethyl)-5-(3-(morpholine-4-carbonyl)isoxazol-5-yl)isoindolin-1-one, reference compound] displayed a 50% effective concentration (EC50) of 121 ± 56 nM. In data set [2], this molecule gave an exposure (AUC) of 0.915 µM·h, a clearance of 44.3 mL/min/kg and a half-life of 48.8 min. The “Turnover in recombinant CYP enzymes” value in data set [4] is reported as “predominantly metabolised by CYP3A4”. Besides, the Solubility result in data set [6] is “favorable solubility”. Further, the “Capacity to activate the hERG ion channel” value in data set [7] was “low capacity to activate the hERG ion channel”. Also, in data set [8], the mGluR2 modulator activity result is given as “highly active”.

One may read the EC50 as the concentration at which the effect is half-maximal. One may read the AUC as concentration integrated over time. Broadly, the clearance is the rate of elimination divided by the concentration. The low end stands for a low capacity for elimination, the high end for a high capacity for elimination. By half-life is commonly meant how long it takes for the measured level to halve. Low readings indicate fast loss, high ones slow loss.
